The structures appear in SMILES notation. pKi: −log10 of the molar value.

The record followed here is patent US9969687B2, “Compounds useful as CCR9 modulators” (Norgine B.V., priority 2013, dated 2018).

Test [1] addresses T1, CCR9 (Homo sapiens (Human), UniProt P51686). Put plainly: FLIPR calcium flux assay using MOLT4 cells, TECK stimulation. It is filed as cell-based. As to conditions: MOLT4 cells (human T-cell line). In short, it runs like this:
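MOLT4 cells in HBSS/20 mM HEPES with probenecid, Fluo-4 NW loaded, preincubated with compound (10 μM-0.1 nM final, half-log) for 60 min before TECK stimulation. Calcium rise read on FLIPR; IC50 from four-parameter fit, converted to Ki using TECK concentration and same-day TECK EC50.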
On the technique in general: A change in cytosolic calcium serves as a functional read-out for many receptors and channels.

Test [2] concerns the target T1, CCR9. Put plainly: FLIPR calcium flux assay using hCCR9 over expressed cells (Chem1-hCCR9), TECK stimulation. Type of test: cell-based. As to conditions: Chem1-hCCR9 overexpressing cells. A digest of the protocol: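 Chem1 cells overexpressing hCCR9, loaded with Fluo-4 NW dye (HBSS/20 mM HEPES, probenecid), preincubated 60 min with compound (10 μM-0.1 nM final), then stimulated with TECK at EC80. Calcium rise read on FLIPR; IC50 from four-parameter fit, Ki derived from IC50 using TECK concentration and same-day TECK EC50.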

T1 sequence (P51686 whole entry): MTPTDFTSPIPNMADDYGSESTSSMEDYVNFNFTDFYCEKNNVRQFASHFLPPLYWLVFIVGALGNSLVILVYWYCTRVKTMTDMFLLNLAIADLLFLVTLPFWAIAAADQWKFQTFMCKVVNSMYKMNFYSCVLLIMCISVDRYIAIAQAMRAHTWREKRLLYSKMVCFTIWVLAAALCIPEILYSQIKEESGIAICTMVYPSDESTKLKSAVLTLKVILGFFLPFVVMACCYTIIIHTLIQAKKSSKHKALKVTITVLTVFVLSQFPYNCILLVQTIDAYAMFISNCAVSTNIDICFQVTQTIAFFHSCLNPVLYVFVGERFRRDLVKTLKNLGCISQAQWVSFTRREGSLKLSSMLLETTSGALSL

Broadly, the pKi is the negative decadic logarithm of the Ki, by convention in mol/L. Regarding `Cc1ccc(NS(=O)(=O)c2ccc(C(C)(C)C)cc2)c2c1C(=O)N(Cc1cccnc1)C2=O` [Compound 160], the results for the pKi in test [1] and in test [2] were 6.34 and 6.11, respectively.
On to `COc1c(N2C(=O)c3c(Cl)ccc(NS(=O)(=O)c4ccc(C(C)(C)C)cc4)c3C2=O)ccc[n+]1[O-]` [Compound 194], for which the pKi was 8.40 in test [1] and 8.22 in test [2].
With `O=C1c2c(Cl)ccc(NS(=O)(=O)c3ccc(C(F)(F)F)cc3)c2C(=O)N1c1cn[nH]c1` [Compound 149], the pKi was 7.28 in test [1] and 6.40 in test [2].
As for `CC(C)(C)c1ccc(S(=O)(=O)Nc2ccc(Cl)c3c2C(=O)N(c2ncccn2)C3=O)cc1` [Compound 250], the pKi in test [1] is 7.64; in test [2], 7.25.
As to `CCc1c(OC)c[n+]([O-])cc1N1C(=O)c2c(Cl)ccc(NS(=O)(=O)c3ccc(C(C)(C)C)cc3)c2C1=O` [Compound 266], the pKi in test [1] was 8.00; in test [2] it was 7.60.
As to `COc1cncc(N2C(=O)c3c(Cl)ccc(NS(=O)(=O)c4ccc(C(C)(C)C)cc4)c3C2=O)c1` [Compound 90, 4-(tert-butyl)-N-(7-chloro-2-(5-methoxypyridin-3-yl)-1,3-dioxoisoindolin-4-yl)benzenesulfonamide], the pKi in test [1] was 7.66; in test [2] it was 6.76.
The corresponding values for `Cc1ccc(N2C(=O)c3c(Cl)ccc(NS(=O)(=O)c4ccc(C(C)(C)C)cc4)c3C2=O)nc1` [Compound 226] are 7.68 and 7.64.
`COc1ccc(N2C(=O)c3c(Cl)ccc(NS(=O)(=O)c4ccc(C(C)(C)C)cc4)c3C2=O)c(C)n1` [Compound 238]: the pKi in test [1] was 7.85; in test [2], 7.89.
Consider `CCOC(=O)c1ncccc1N1C(=O)c2c(Cl)ccc(NS(=O)(=O)c3ccc(C(C)(C)C)cc3)c2C1=O` [Compound 286, ethyl 3-(4-((4-(tert-butyl)phenyl)sulfonamido)-7-chloro-1,3-dioxoisoindolin-2-yl)picolinate], for which the results for the pKi in test [1] and in test [2] were 8.00 and 7.85, respectively.
As to `COc1nccc(C)c1N1C(=O)c2c(Cl)ccc(NS(=O)(=O)c3ccc(C(C)(C)C)cc3)c2C1=O` [Compound 237], the figures for the pKi in test [1] and in test [2] were 7.55 and 8.05, respectively.
On to `Cc1cncc(CN2C(=O)c3c(Cl)ccc(NS(=O)(=O)c4ccc(C(C)(C)C)cc4)c3C2=O)c1` [Compound 258], for which the results for the pKi in test [1] and in test [2] were 7.64 and 7.17, respectively.
For `Cc1cc(CN2C(=O)c3c(Cl)ccc(NS(=O)(=O)c4ccc(C(C)(C)C)cc4)c3C2=O)c[n+]([O-])c1` [Compound 262], the pKi in test [1] was 7.34; in test [2], 6.92.
Turning to `Cc1ccc(CN2C(=O)c3c(Cl)ccc(NS(=O)(=O)c4ccc(C(C)(C)C)cc4)c3C2=O)nc1` [Compound 251], the pKi in test [1] is 7.29; in test [2] it was 6.83.
Consider `COc1cncc(N2C(=O)c3c(C#N)ccc(NS(=O)(=O)c4ccc(C(C)(C)C)cc4)c3C2=O)c1` [Compound 278], for which the pKi in test [1] is 8.00; in test [2], 7.77.
For the molecule `CC(C)(C)c1ccc(S(=O)(=O)Nc2ccc(Cl)c3c2C(=O)N(c2ccncn2)C3=O)cc1` [Compound 249], the negative logarithm of the Ki (pKi) in test [1] was 7.48; in test [2], 7.22.
Take `CC(C)(C)c1ccc(S(=O)(=O)Nc2ccc(C#N)c3c2C(=O)N(Cc2ccccn2)C3=O)cc1` [Compound 279]: the pKi in test [1] is 7.74; in test [2] it was 7.77.
For `COc1ccc(N2C(=O)c3c(Cl)ccc(NS(=O)(=O)c4ccc(C(C)(C)C)cc4)c3C2=O)c(OC)n1` [Compound 230], the negative logarithm of the Ki (pKi) in test [1] was 8.10; in test [2] it was 8.22.
As to `N#Cc1cccc(N2C(=O)c3c(Cl)ccc(NS(=O)(=O)c4ccc(C(F)(F)F)cc4)c3C2=O)c1` [Compound 121], the negative-log Ki (pKi) in test [1] was 6.72; in test [2], 6.47.
As for `CC(C)(C)c1ccc(S(=O)(=O)Nc2ccc(Cl)c3c2C(=O)N(c2ccccn2)C3=O)cc1` [Compound 222], the figures for the pKi in test [1] and in test [2] were 8.22 and 7.92, respectively.
With `CCc1c(OC)cncc1N1C(=O)c2c(Cl)ccc(NS(=O)(=O)c3ccc(C(C)(C)C)cc3)c2C1=O` [Compound 257], the pKi in test [1] is 7.60; in test [2], 7.68.
`COc1ncc(C)cc1N1C(=O)c2c(Cl)ccc(NS(=O)(=O)c3ccc(C(C)(C)C)cc3)c2C1=O` [Compound 261]: the pKi is 7.80 in test [1] and 7.96 in test [2].
Consider `Cc1cnc(C#N)c(N2C(=O)c3c(Cl)ccc(NS(=O)(=O)c4ccc(C(C)(C)C)cc4)c3C2=O)c1` [Compound 256], for which the pKi in test [1] and in test [2] was 7.74 throughout.
For `O=C1c2c(Cl)ccc(NS(=O)(=O)c3ccc(C(F)(F)F)cc3)c2C(=O)N1Cc1cccnc1` [Compound 66], the negative logarithm of the Ki (pKi) in test [1] was 6.94; in test [2] it was 6.57.
For the molecule `CC(C)(C)c1ccc(S(=O)(=O)Nc2ccc(Cl)c3c2C(=O)N(c2cnccn2)C3=O)cc1` [Compound 184], the pKi is 7.80 in test [1] and 7.62 in test [2].
Take `COc1cc(C#N)cc(N2C(=O)c3c(Cl)ccc(NS(=O)(=O)c4ccc(C(C)(C)C)cc4)c3C2=O)c1` [Compound 190]: the pKi in test [1] is 7.62; in test [2], 7.09.
